According to patent US20120027777A1, “LJUNGAN VIRUS WITH IMPROVED REPLICATION CHARACTERISTICS” (APODEMUS AB, priority 2009, published 2012):

Test system: GMK cells
Assay: Cellular DNA degradation by electrophoresis
Assay type: cell-based, Green Monkey
Settings: uninfected GMK cells, 16 h treatment, 0.5 μM, positive control
Description: Degradation of chromosomal DNA is one of the hallmarks of apoptotic cells. DNA degradation in GMK cells infected with 145SL and 145SLG as well as recombinant derivatives of these viruses was assayed as previously described by with some minor modifications. Briefly, subconfluent GMK cells in T25-flasks were infected with 0.5 mL of virus lysates generated from viral cDNA clones by transfection and subsequent blind passage as previously described. […] Lysis of cells was induced using 0.2% Triton X-100, 0.5 mM EDTA in 10 mM Tris-HCl, pH 7.4. Fragmented chromatin was released from cell nuclei by vortexing. The nucleic components were separated (20,000×g for 10 min at 4° C.) and the nucleic acids in the supernatant fraction were precipitated. After precipitation, the nucleic acids were washed in 70% ethanol and dissolved in 50 μl TE buffer (1 mM EDTA, 10 mM Tris-HCl, pH 7.4). The RNA fraction of isolated nucleic acids was degraded using RNase A (10 μg/ml for 30 min at 37° C.). Finally, 1 μg isolated nucleic acids of each sample were separated by electrophoresis in a 1.5% agarose gel. Apoptosis in control cells was induced by a 16 h treatment of GMK cells with 0.5 μM staurosporine (Sigma), a broad spectrum protein kinase inhibitor [10]. The nucleic acids from these control cells were otherwise treated in the same way as described for cells infected with LV.

How did the DNA fragmentation turn out when `CN[C@@H]1C[C@H]2O[C@@](C)([C@@H]1OC)n1c3ccccc3c3c4c(c5c6ccccc6n2c5c31)C(=O)NC4` [staurosporine] was run?
Its DNA fragmentation is “expected processing of the nuclear DNA”.
